Experimental data: patent US9650405B2, “Modified sophorolipids as oil solubilizing agents” (Polytechnic Institute of New York University, priority 2010, dated 2017)
Values belong to the compound of their own block, whether it stands above or below them.

Assays:
[1] = Emulsification of paraffin and rapeseed oil by transalkylidenation MSLs; assay type: physicochemical; settings: for change in emulsions during a 6-week aging period: 1 weight % surfactant, water:paraffin oil 1:1 (v/v), FIG. 22
Experimental: Mixtures of oil (paraffin or rapeseed) and water, in a 1:1 volume ratio, were prepared. MSL compounds 39, 40, and 41 at 1 weight % relative to water were each assessed as emulsifiers. Each mixture was agitated for 5 min using a homogenizer. […] This is in contrast to the studies above where sophorolipid esters and amides consisting of one hydrophobic arm formed oil-in-water mixtures. For compound 43 that has relatively more hydrophobic character than MSL compounds 39. 40 and 41, paraffin oil and water (1:1 volume ratio) were combined and MSL compound 43 (2 weight % to water) was then added. The mixture was agitated by a homogenizer for 5 minutes. […] The emulsion was stable during the 3 weeks it was monitored (FIG. 24). […] The cloudy parts are emulsified water, and the continuous phase is the oil. […] Condition: 15% (v/v) of water in rapeseeds oil, 1 weight % (relative to water) of compound 40 were mixed and stirred using a homogenizer for 5 minutes (scale bar: 100 μm).

[2] = Lemon oil solubilization, sonication, droplet size by dynamic light scattering; assay type: physicochemical; settings: for average droplet sizes after one month: lemon oil emulsions; for Emulsion Droplet Size / Emulsion Droplet Size, bottom emulsion layer / Emulsion Droplet Size, top emulsion layer: 1 weight-%
Experimental: MSL's used in this example are SL-hexyl ester (16), SL-octyl ester SL (17), and SL-dodecyl ester (18). To test the MSL capacity for lemon oil solubilization, the volume ratio of water to lemon oil, the concentration of surfactant, and the homogenization time (using a sonicator as the means of homogenization) were varied. Concentration of surfactant is calculated on a w/w basis relative to the mass of water being used. To form emulsions, the MSL or other surfactant is first dissolved in the water, oil is added to the solution, and finally the contents of the water/surfactant+oil system is sonicated. Subsequently, the emulsion is allowed to settle for 24 hours at 25° C. before measurements or visual observations are made.
To evaluate the stability of lemon oil solubilization, photographs of emulsions were recorded daily (after the initial 24 hours). Visual observations consisted of assessing solution clarity, extent of creaming and whether oil separation occurs. After selected time periods measurement of emulsion droplet size was performed by dynamic light scattering, which gives an average droplet size in the solution. […] If the emulsion had creamed (separated into two discreet emulsion layers) the average droplet size for each emulsion layer was determined. The results of this study are listed in Table 6, where the first number represents average droplet size in the top emulsion layer and the second represents the average droplet size in the bottom emulsion layer. […] A better performing emulsifier for this study is defined as functioning to form emulsions with smaller average particle size after the aging period.

[3] = Crude oil emulsification activity (turbidity at 610 nm); settings: emulsifier 1 mg/mL
Experimental: Emulsification activity was assessed using Louisiana Crude, Arabian Light Crude, and Prudhoe Bay Crude as the oil phase. A 2 mL solution with emulsifier concentration of 1 mg/mL was prepared. A crude oil (10 mg) was added to the emulsifier aqueous solution, the mixture was vortexed for one minute and the emulsified mixture was allowed to stand for 20 minutes. Emulsification activity was determined by measuring turbidity of the emulsion mixture in a spectrophotometer at 610 nm. The results obtained using SL-ethyl ester, SL-butyl ester, the natural sophorolipid mixture and Triton X-100 as emulsifiers are expressed as D610 and are listed in Table 8. […] Furthermore, a remarkable improvement in emulsification activity was obtained for SL-butyl ester relative to the natural sophorolipid mixture. These comparative results for emulsification of Louisiana Crude, Arabian Light Crude, and Prudhoe Bay Crude oil phase could not be anticipated by one skilled in the art.

[4] = Crude oil clearing/displacement activity; settings: 20 μL of 1 mg/mL solution
Experimental: Oil cleaning assays were performed using Louisiana Crude, Arabian Light Crude, and Prudhoe Bay Crude as the oil phase. In one study, the oil clearing/displacement activity of MSLs were assessed using a crude oil layer on top of sea water in order to simulate oil spill type conditions. Sea water (20 mL) was transferred to plastic Petri dishes and 20 μL of a crude oil type was added on top of the water to create an oil layer. Subsequently, a 20 μL aliquot of MSL solution (1 mg/mL) was added dropwise to the top of the oil layer. The instantaneous formation of an oil clearing zone as well as the diameter of the clearing zone was determined as a function of the dispersant used. […] Furthermore, the oil displacement activity of SL-ethyl ester and SL-butyl ester was slightly higher than Triton-X-100 for Arabian Light crude.

[5] = Emulsion stability based on phase separation; assay type: physicochemical
Experimental: The emulsion was obtained by homogenizing the oil and water mixture and was allowed to settle at room temperature for 24 hours. […] Then, this mixture was homogenized at 13,000 rpm for 2 minutes. Thereafter, the resulting emulsion was left unagitated at 25° C. for 24 hours. Surfactants which give a larger emulsion phase are denoted as having higher emulsion effectiveness (Process Safety and Environment protection, 2005, 83, 38-46). […] Thus, unexpectedly, that longer alkyl chains, at least up to butyl and hexyl, provided improved interfacial stability at the paraffin oil/water interface. […] Apparently, ester bonds of SL-esters are less disruptive to organization at the oil water interface than amide bonds of SL-amides. […] The acidic SL (3) gave an 8% emulsion layer, much lower than the MSL examples given herein. Similarly, the natural SL (1) mixture gave a 10% emulsion layer. This performance is also far below that of SL-butyl amide (24), hexyl amide (25), butyl ester (8) and hexyl ester (16).
After homogenized at 13,000 rpm for 2 minutes, the emulsions were kept at room temperature and separation of the respective oil, emulsion and water layers was recorded for up to 1 month.

[6] = Emulsion droplet size distribution, Coulter LS 230 analyzer; assay type: physicochemical; settings: paraffin oil-to-water 7:3 v/v, 25° C.
Experimental: Emulsified oil droplet size (average and standard deviation) was measured after suitable dilution of the emulsion phase using a Coulter LS 230 analyzer. […] Relative to natural and lactonic SL, selected MSLs show improved properties as emulsifiers on paraffin oil.
After being aged for 3-months, emulsified oil droplet size (average and standard deviation) was measured after suitable dilution of the emulsion phase using a Coulter LS 230 analyzer and the results are listed in Table 5. […] However, increasing the surfactant concentration from 1 to 2% did result in substantially smaller emulsion-phase droplet sizes. […] This is evidence that MSL's can stabilize oil phases greatly decreasing their tendency to undergo coalescence. […] It follows that the results of 3-month aging studies support the utility of selected MSLs for formation and stabilization of oil-in-water emulsions of paraffin oil phases. One skilled in the art would expect that the ability of these MSLs to stabilize paraffin oil phases teaches that they would also stabilize oil phases of similar structure.

[7] = oil (paraffin or rapeseed) and water 1:1 volume ratio, 1 weight % relative to water
[8] = lemon oil/water 1/99, sonication 60 sec, 1 Week
[9] = lemon oil/water 1/99, sonication 60 sec, 5 Weeks
[10] = lemon oil/water 5/95, sonication 60 sec, 1 Week
[11] = lemon oil/water 5/95, sonication 60 sec, 5 Weeks
[12] = paraffin oil and water 1:1 volume ratio, 2 weight % to water
[13] = lemon oil/water 1/99, sonication 120 sec, 1 Week
[14] = Arabian Light Crude on sea water

change in emulsions during a 6-week aging period [1]: no substantial change | emulsion type [1, 7]: water-in-oil emulsions | time the emulsions were stable (monitored period) [1, 7]: ≥ 6 weeks
Compound: COC(=O)/C=C/CCCCCCCC(=O)OC1C(COC(C)=O)OC(OC2C(OC(C)CCCCCC/C=C/C(=O)OC)OC(COC(C)=O)C(O)C2O)C(O)C1O (stereo not drawn) [Compound 39]

emulsion type [1, 7]: water-in-oil emulsions | time the emulsions were stable (monitored period) [1, 7]: ≥ 6 weeks
Compound: CCCCOC(=O)/C=C/CCCCCCCC(=O)OC1C(COC(C)=O)OC(OC2C(OC(C)CCCCCC/C=C/C(=O)OCCCC)OC(COC(C)=O)C(O)C2O)C(O)C1O (stereo not drawn) [Compound 41]

emulsion stability after 6 weeks ([1]; 15% (v/v) of water in rapeseeds oil, 1 weight % relative to water): emulsion remained stable | emulsion type [1, 7]: water-in-oil emulsions | time the emulsions were stable (monitored period) [1, 7]: ≥ 6 weeks
Compound: CCOC(=O)/C=C/CCCCCCCC(=O)OC1C(COC(C)=O)OC(OC2C(OC(C)CCCCCC/C=C/C(=O)OCC)OC(COC(C)=O)C(O)C2O)C(O)C1O (stereo not drawn) [Compound 40]

average droplet sizes after one month [2]: below 1 μm | Emulsion Droplet Size [2, 8]: 92 nm | Emulsion Droplet Size ([2]; lemon oil/water 1/99, sonication 60 sec, 2 Days): 52 nm | Emulsion Droplet Size [2, 9]: 183 nm | Emulsion Droplet Size [2, 10]: 179 nm | Emulsion Droplet Size ([2]; lemon oil/water 5/95, sonication 60 sec, 2 Days): 167 nm | Emulsion Droplet Size [2, 11]: 325 nm
Compound: CCCCCCCCOC(=O)CCCCCCCC=CCCCCCCC(C)OC1OC(CO)C(O)C(O)C1OC1OC(CO)C(O)C(O)C1O (stereo not drawn) [Compound 17, SL-octyl ester]

change in emulsions during a 6-week aging period [1]: no substantial change | emulsion type [1, 12]: water-in-oil emulsion | time the emulsion was stable (monitored period) [1, 12]: ≥ 3 weeks
Compound: CCCCCCCCCCCCOC(=O)/C=C/CCCCCCCC(=O)OC1C(COC(C)=O)OC(OC2C(OC(C)CCCCCC/C=C/C(=O)OCCCCCCCCCCCC)OC(COC(C)=O)C(O)C2O)C(O)C1O (stereo not drawn) [Compound 43]

Emulsion Droplet Size [2, 13]: 379 nm
Compound: Rhamnolipid [reference compound]

Oil displacement activity (diameter of the clearing zone) [4, 14]: 6.05 ± 0.07 cm | Oil displacement activity (diameter of the clearing zone) ([4]; Louisiana Crude on sea water): 5.5 ± 0.21 cm | Oil displacement activity (diameter of the clearing zone) ([4]; Prudhoe Bay Crude on sea water): 7.8 ± 0.07 cm
Compound: Triton X-100 [reference compound]
Emulsification activity (D610) ([3]; Arabian Crude): 0.17 | Emulsification activity (D610) ([3]; Louisiana Crude): 0.28 | Emulsification activity (D610) ([3]; Prudhoe Crude): 0.49

emulsion layer, start ([5]; oil/water 7/3, 2%-by-weight, start of aging): 90% | emulsion layer percentage ([5]; paraffin oil/water 5/5, 2%-by-weight emulsifier, after 24 hours at 25° C.): 70% | Oil displacement activity (diameter of the clearing zone) [4, 14]: 0.65 ± 0.21 cm | Oil displacement activity (diameter of the clearing zone) ([4]; Louisiana Crude on sea water): 0.5 ± 0.14 cm | Oil displacement activity (diameter of the clearing zone) ([4]; Prudhoe Bay Crude on sea water): 1.2 ± 0.42 cm | Average droplet size ([6]; 0.5 weight %, 24 hours): 2.3 ± 0.2 μm | Average droplet size ([6]; 0.5 weight %, aged 3-months): 3.1 ± 0.1 μm | Average droplet size ([6]; 1 weight %, 24 hours): 2.1 ± 0.1 μm | Average droplet size ([6]; 1 weight %, aged 3-months): 2.7 ± 0.1 μm | Average droplet size ([6]; 2 weight %, 24 hours): 1.6 ± 0.2 μm | Average droplet size ([6]; 2 weight %, aged 3-months): 2.0 ± 0.1 μm
Compound: CCCCCCCCCCCCOS(=O)(=O)[O-].[Na+] [SDS, Sodium dodecyl sulfate, reference compound]

Emulsion Droplet Size ([2]; lemon oil/water 1/99, sonication 120 sec, 1 Month): 233 nm | Emulsion Droplet Size [2, 13]: 173 nm
Compound: TWEEN ® 60 [reference compound]

average droplet sizes after one month [2]: below 1 μm | Emulsion Droplet Size [2, 8]: 238 nm | Emulsion Droplet Size [2, 9]: 277 nm | Emulsion Droplet Size, bottom emulsion layer [2, 10]: 327 nm | Emulsion Droplet Size, top emulsion layer [2, 10]: 389 nm | Emulsion Droplet Size, bottom emulsion layer [2, 11]: 208 nm | Emulsion Droplet Size, top emulsion layer [2, 11]: 551 nm
Compound: CCCCCCCCCCCCOC(=O)CCCCCCCC=CCCCCCCC(C)OC1OC(CO)C(O)C(O)C1OC1OC(CO)C(O)C(O)C1O (stereo not drawn) [Compound 18, SL-dodecyl ester]
